Square brackets hold non-standard residues; d marks the D form. Peptide text beside a SMILES is read from it. * marks the point of attachment. Dolaproine = CO[C@@H]([C@@H]1CCCN1)[C@@H](C)C(=O)O; Dil = CC[C@H](C)[C@H](NC)[C@@H](CC(=O)O)OC; X1 = C[C@@H](N*)[C@@H](O)c1ccccc1; NMeV = CN[C@H](C(=O)O)C(C)C
Legend:
PA-1 cells [1] = experiment: Cytotoxicity (cell titer glo, 72 h) ovarian cancer cell line PA-1; type: cell-based; conditions: Homo sapiens, PA-1 cell line
Description: T-24 Cell line were cultured in McCoy's 5a Medium Modified supplemented with 10% FBS and the PA-1 Cell line was cultured in EMEM Media supplemented with 10% FBS. The assay was performed by plating 5,000 cells/well and incubated at 37° C. overnight. […] Each concentration was added in triplicate and media-only wells used as a control. After incubation for 72 h cell titer glow (Promega) reagent (50 μL) was added to each well and the plates shaken for 5 mins and the luminescence was recorded. Percent viability was determined by dividing luminescence of the treated well by the non-treated well and multiplying by 100. Data was analysed using non-linear regression with a logarithmic scale.
5,000 cells/well were plated and incubated at 37° C. overnight. Conjugates/vehicle control dilutions were made in respective media and added to cells. Volume added: 50 uL to each well. […] Each concentration was analysed in triplicates. […] Cell titer glow reagent (volume: 50 uL) was added to each well, the plate was shaken for 5 mins and the luminescence was recorded. […] Percent viability was calculated by dividing the luminescence signal obtained for each treated well by the untreated well (media-only control) and multiplying by 100.

MG-63 cells = experiment: MTT cytotoxicity assay, MG-63 bone; type: cell-based; conditions: Homo sapiens, MG-63, 48 h
Description: (§1) The Untreated cells were used as Control. […] Cells were incubated for 3 h at 37° C. The supernatant was aspirated.
(§2) The % Cytotoxicity was calculated using the formula: […]
(§3) Selectivity Index was calculated using the formula:
(§4) SI=IC50 in Normal cell/IC50 in cancer cell.

PA-1 cells [2] = experiment: MTT cytotoxicity assay, PA-1 ovary; type: cell-based; conditions: Homo sapiens
Description: as §1, §2, §3, §4

T24 cells = experiment: MTT cytotoxicity assay, T24 bladder; type: cell-based; conditions: Homo sapiens, T-24
Description: as §1, §2, §3, §4

MDA-MB-231 cells = experiment: MTT cytotoxicity assay, MDA-MB-231 breast; type: cell-based; conditions: Homo sapiens
Description: as §1, §2, §3, §4

PBMC Normal = experiment: Cytotoxic effect by MTT assay, 48 h; conditions: for Percent cytotoxicity wrt control: PBMC, 48 h
Description: Cells were treated with Test Items at various concentrations (0.0001 μM-10 μM) for 48 h. The cells corresponding to Positive Control group were treated with Doxorubicin at a concentration ranging from 0.1 μM-100 μM. The Untreated cells were used as Control. After 48 h of incubation, the effect of Test Items on cytotoxicity of cells was determined by MTT assay, the plates were taken out and 20 μl of 5 mg/m1 of MTT 3-(4,5-dimethythiazol-2-yl)-2,5-diphenyl tetrazolium bromide solution was added to all the wells. Cells were incubated for 3 h at 37° C. The supernatant was aspirated. 150 μl of DMSO was added to each well to dissolve formazan crystals. The absorbance of each well was then read at 540 nm using Synergy HT micro plate reader.
The % Cytotoxicity was calculated using the formula:
Where, X=Absorbance of cells treated with Test Item; R=Absorbance of Control cells (Untreated cells maintained in growth medium only).

HT29 cells = experiment: MTT cytotoxicity assay, HT29 colon; type: cell-based; conditions: Homo sapiens, HT-29
Description: as §1, §2, §3, §4

AGS cells = experiment: MTT cytotoxicity assay, AGS stomach; type: cell-based; conditions: Homo sapiens, 48 h
Description: as §1, §2, §3, §4

A549 cells = experiment: MTT cytotoxicity assay, A549 lungs; type: cell-based; conditions: Homo sapiens
Description: as §1, §2, §3, §4

PBMC = experiment: MTT cytotoxicity assay, PBMC normal; type: cell-based; conditions: 48 h
Description: as §1, §2, §3, §4

Molecule `CC[C@H](C)[C@@H]([C@@H](CC(=O)N1CCC[C@H]1[C@H](OC)[C@@H](C)C(=O)N[C@H](C)[C@@H](O)c1ccccc1)OC)N(C)C(=O)[C@@H](NC(=O)[C@@H](NC)C(C)C)C(C)C` [MMAE, monomethyl auristatin E] (H-[NMeV]V[Dil][Dolaproine]-X1) has an IC50 (PA-1 cells [1]) of 3.23 nM, an IC50 (MG-63 cells) of 0.1 nM and an IC50 (PA-1 cells [2]; PA-1, 48 h) of 30.1 nM. It also gave a cytotoxicity at 0.0001 µM (PA-1 cells [2]; PA-1, 0.0001 μm, 48 h, read-out: Percent cytotoxicity wrt control) of 13.4%, a cytotoxicity at 0.001 µM (PA-1 cells [2]; PA-1, 0.001 μm, 48 h, read-out: Percent cytotoxicity wrt control) of 57.5% and a cytotoxicity at 0.01 µM (PA-1 cells [2]; PA-1, 0.01 μm, 48 h, read-out: Percent cytotoxicity wrt control) of 50%. The cytotoxicity at 0.1 µM (PA-1 cells [2]; PA-1, 0.1 μm, 48 h, read-out: Percent cytotoxicity wrt control) was 57.5%, the cytotoxicity at 1 µM (PA-1 cells [2]; PA-1, 1 μm, 48 h, read-out: Percent cytotoxicity wrt control) was 61.7% and the cytotoxicity at 10 µM (PA-1 cells [2]; PA-1, 10 μm, 48 h, read-out: Percent cytotoxicity wrt control) was 58.3%. It also gave a cytotoxicity at 0.0001 µM (T24 cells; T24, 0.0001 μm, 48 h, read-out: Percent cytotoxicity wrt control) of 51.8%, a cytotoxicity at 0.001 µM (T24 cells; T24, 0.001 μm, 48 h, read-out: Percent cytotoxicity wrt control) of 51.1% and a cytotoxicity at 0.01 µM (T24 cells; T24, 0.01 μm, 48 h, read-out: Percent cytotoxicity wrt control) of 46.1%. The cytotoxicity at 0.1 µM (T24 cells; T24, 0.1 μm, 48 h, read-out: Percent cytotoxicity wrt control) was 44.4%, the cytotoxicity at 1 µM (T24 cells; T24, 1 μm, 48 h, read-out: Percent cytotoxicity wrt control) was 44.4% and the cytotoxicity at 10 µM (T24 cells; T24, 10 μm, 48 h, read-out: Percent cytotoxicity wrt control) was 53.2%. It also gave an IC50 (T24 cells; T24, 48 h) of 0.01 nM, an IC50 (MDA-MB-231 cells; MDA-MB-231, 48 h) of over 10000 nM and a cytotoxicity at 0.0001 µM (MDA-MB-231 cells; MDA-MB-231, 0.0001 μm, 48 h, read-out: Percent cytotoxicity wrt control) of 11.3%. For the same molecule, the cytotoxicity at 0.001 µM (MDA-MB-231 cells; MDA-MB-231, 0.001 μm, 48 h, read-out: Percent cytotoxicity wrt control) was 13.3%, the cytotoxicity at 0.01 µM (MDA-MB-231 cells; MDA-MB-231, 0.01 μm, 48 h, read-out: Percent cytotoxicity wrt control) was 28.9% and the cytotoxicity at 0.1 µM (MDA-MB-231 cells; MDA-MB-231, 0.1 μm, 48 h, read-out: Percent cytotoxicity wrt control) was 23.8%. The cytotoxicity at 1 µM (MDA-MB-231 cells; MDA-MB-231, 1 μm, 48 h, read-out: Percent cytotoxicity wrt control) was 16.8%, the cytotoxicity at 10 µM (MDA-MB-231 cells; MDA-MB-231, 10 μm, 48 h, read-out: Percent cytotoxicity wrt control) was 26.4% and the “Percent cytotoxicity wrt control” value (PBMC Normal; 0.0001 μM) was −2.7%. The “Percent cytotoxicity wrt control” value (PBMC Normal; 0.001 μM) was 29.8%, the “Percent cytotoxicity wrt control” value (PBMC Normal; 0.01 μM) was 34.3% and the “Percent cytotoxicity wrt control” value (PBMC Normal; 0.1 μM) was 34.1%. For the same molecule, the “Percent cytotoxicity wrt control” value (PBMC Normal; 1 μM) was 26.6%, the “Percent cytotoxicity wrt control” value (PBMC Normal; 10 μM) was 32.5% and the IC50 (PBMC Normal; read-out: IC50 Values, PBMC Normal, after 48 h of treatment) was over 10000 nM. For the same molecule, the cytotoxicity at 0.0001 µM (HT29 cells; HT29, 0.0001 μm, 48 h, read-out: Percent cytotoxicity wrt control) was 44.1%, the cytotoxicity at 0.001 µM (HT29 cells; HT29, 0.001 μm, 48 h, read-out: Percent cytotoxicity wrt control) was 44.6% and the cytotoxicity at 0.01 µM (HT29 cells; HT29, 0.01 μm, 48 h, read-out: Percent cytotoxicity wrt control) was 50.6%. For the same molecule, the cytotoxicity at 0.1 µM (HT29 cells; HT29, 0.1 μm, 48 h, read-out: Percent cytotoxicity wrt control) was 50.4%, the cytotoxicity at 1 µM (HT29 cells; HT29, 1 μm, 48 h, read-out: Percent cytotoxicity wrt control) was 51.9% and the cytotoxicity at 10 µM (HT29 cells; HT29, 10 μm, 48 h, read-out: Percent cytotoxicity wrt control) was 55.9%. It also gave an IC50 (HT29 cells; HT29, 48 h) of 50 nM, a cytotoxicity at 0.0001 µM (AGS cells; 0.0001 μm, read-out: Percent cytotoxicity wrt control) of 30.9% and a cytotoxicity at 0.001 µM (AGS cells; 0.001 μm, read-out: Percent cytotoxicity wrt control) of 31.7%. The cytotoxicity at 0.01 µM (AGS cells; 0.01 μm, read-out: Percent cytotoxicity wrt control) was 32.6%, the cytotoxicity at 0.1 µM (AGS cells; 0.1 μm, read-out: Percent cytotoxicity wrt control) was 48.2% and the cytotoxicity at 1 µM (AGS cells; 1 μm, read-out: Percent cytotoxicity wrt control) was 48.4%. It also gave a cytotoxicity at 10 µM (AGS cells; 10 μm, read-out: Percent cytotoxicity wrt control) of 54.4%, an IC50 (AGS cells) of 1540 nM and an IC50 (A549 cells; A549, 48 h) of 10 nM. The cytotoxicity at 0.0001 µM (A549 cells; A549, 0.0001 μm, 48 h, read-out: Percent cytotoxicity wrt control) was 27.9%, the cytotoxicity at 0.001 µM (A549 cells; A549, 0.001 μm, 48 h, read-out: Percent cytotoxicity wrt control) was 39.3% and the cytotoxicity at 0.01 µM (A549 cells; A549, 0.01 μm, 48 h, read-out: Percent cytotoxicity wrt control) was 43.5%. The cytotoxicity at 0.1 µM (A549 cells; A549, 0.1 μm, 48 h, read-out: Percent cytotoxicity wrt control) was 58.8%, the cytotoxicity at 1 µM (A549 cells; A549, 1 μm, 48 h, read-out: Percent cytotoxicity wrt control) was 83.6% and the cytotoxicity at 10 µM (A549 cells; A549, 10 μm, 48 h, read-out: Percent cytotoxicity wrt control) was 75.8%. It also gave an IC50 (PBMC; PBMC (normal)) of over 10000 nM and a cytotoxicity at 0.0001 µM (PBMC; PBMC, 0.0001 μm, read-out: Percent cytotoxicity wrt control) of -2.7%.

Source: US20250302974A1, “LECTIN-DRUG CONJUGATES” (UNICHEM LABORATORIES LIMITED, priority 2021, published 2025)
